Test results reported in the supplement of paper PMC10307832.

Legend:
Assay in all cases: relative viability (nuclei count vs DMSO), 5 days (fraction); higher = more cells survive
[1] = compound: C1=CC2=NC=CN=C2C=C1/C=C/3\C(=O)NC(=O)S3 + CC(=O)c1c(C)c2cnc(Nc3ccc(N4CCNCC4)cn3)nc2n(C2CCCC2)c1=O [Palbociclib] (partner 0.5 µM)
Procedure, shortened: (§1)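 Relative viability equals treated-well nuclei counts divided by vehicle-well nuclei counts. Counts came from 4× images of lung cancer cell lines grown in 1536-well plates for 5 days after pin-tool dosing on the day after seeding. Dosing used one drug alone or a fixed anchor-drug dose plus five library-drug doses (not always all listed) in √10 steps, and values are medians of duplicate plates.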

[2] = compound: C1=CC2=NC=CN=C2C=C1/C=C/3\C(=O)NC(=O)S3 + CC1(C)CCC(c2ccc(Cl)cc2)=C(CN2CCN(c3ccc(C(=O)NS(=O)(=O)c4ccc(N[C@H](CCN5CCOCC5)CSc5ccccc5)c(S(=O)(=O)C(F)(F)F)c4)cc3)CC2)C1 [Navitoclax] (partner 0.5 µM)
Procedure, shortened: as §1

[3] = compound: C1=CC2=NC=CN=C2C=C1/C=C/3\C(=O)NC(=O)S3 + CC(=O)Nc1cccc(-n2c(=O)n(C3CC3)c(=O)c3c(Nc4ccc(I)cc4F)n(C)c(=O)c(C)c32)c1 [Trametinib] (partner 0.02 µM)
Procedure, shortened: as §1

[4] = compound: C1=CC2=NC=CN=C2C=C1/C=C/3\C(=O)NC(=O)S3 + C[C@]1(O)C[C@@H](c2nc(-c3ccc4ccc(-c5ccccc5)nc4c3)c3c(N)nccn32)C1 [Linsitinib] (partner 1 µM)
Procedure, shortened: as §1

Cell Line	relative viability ([1]; first compound 0.02 µM)	relative viability ([1]; first compound 0.06325 µM)	relative viability ([1]; first compound 0.2 µM)	relative viability ([1]; first compound 0.6325 µM)	relative viability ([1]; first compound 2 µM)	relative viability ([2]; first compound 0.02 µM)	relative viability ([2]; first compound 0.06325 µM)	relative viability ([2]; first compound 0.2 µM)	relative viability ([2]; first compound 0.6325 µM)	relative viability ([2]; first compound 2 µM)	relative viability ([3]; first compound 0.02 µM)	relative viability ([3]; first compound 0.06325 µM)	relative viability ([3]; first compound 0.2 µM)	relative viability ([3]; first compound 0.6325 µM)	relative viability ([3]; first compound 2 µM)	relative viability ([4]; first compound 0.02 µM)	relative viability ([4]; first compound 0.06325 µM)	relative viability ([4]; first compound 0.2 µM)	relative viability ([4]; first compound 0.6325 µM)	relative viability ([4]; first compound 2 µM)
NCI-H3122	0.204	0.213	0.173	0.194	0.186	1.06	0.997	0.973	1.01	1.08	0.246	0.261	0.237	0.191	0.235	1.01	1.15	0.955	1	1.17
PC-3 [JPC-3]	0.492	0.637	0.566	0.561	0.541	0.744	0.765	0.783	0.749	0.766	0.627	0.772	0.734	0.736	0.646	0.889	1.01	0.879	0.923	0.963
PC-14	0.492	0.539	0.559	0.488	0.587	0.871	1	1	1	1.08	0.702	1.16	0.835	0.738	0.938	0.88	0.952	0.994	1.02	0.993
RERF-LC-KJ	1.04	1.12	1.05	0.994	1.15	0.69	0.897	1.01	0.863	0.826	0.815	0.878	0.88	0.738	0.62	0.82	1.03	0.894	0.811	0.853
SK-LU-1	0.376	0.367	0.374	0.403	0.411	0.84	0.765	1.02	0.854	0.868	0.506	0.417	0.558	0.542	0.407	1.2	1.22	1.15	1.06	0.989
SK-MES-1	0.328	0.305	0.344	0.338	0.313		1.4	1.3	1.21	1.23	0.509	0.564	0.643	0.566	0.503	1.04	1.25	1.09	0.95	1.04
SW 1573	0.464	0.56	0.346	0.309	0.33	0.879	1.05	1.05	0.866	0.945	0.538	0.683	0.57	0.572	0.445	0.78	0.825	0.943	0.847	0.714
UMC-11	0.341	0.328	0.33	0.328	0.414	0.296	0.397	0.312	0.307	0.302	0.697	0.792	0.75	0.663	0.81	1.02	1.12	1.05	0.989	1.11
